Assay results: ChEMBL document CHEMBL2331468, “Antimalarial activities of 6-iodouridine and its prodrugs and potential for combination therapy” (J Med Chem, 2013)
Blank lines part the entries; values can stand above or below the compound they belong to. Activity calls are given as the source filed them. No cut-off for these calls is given here.

Columns and labels:
Plasmodium berghei [1] = test: Antimalarial activity against Plasmodium berghei infected in mouse assessed as reduction of parasitemia at 8 mg/dose, ip on days 4 to 7 relative to untreated control; assay type: functional, organism-based
Plasmodium falciparum [2] = test: Antimalarial activity against mature-stage Plasmodium falciparum assessed as decrease in viability at 4 uM incubated for 3 hrs followed by compound washout measured after 48 hrs by SYBR-Green staining-based fluorescence analysis relative to untreated control; assay type: functional, organism-based
CHO [3] = test: Cytotoxicity against CHO cells at 5 to 250 uM after 48 hrs by MTT assay in presence of uridine; assay type: cell-based, Cricetulus griseus; settings: chinese hamster
[4] = Selectivity index for Plasmodium falciparum over Plasmodium berghei in presence of uridine; assay type: functional
Mus musculus [5] = test: Toxicity against BALB/c mouse infected with Plasmodium berghei assessed as loss in body weight at 6 mg/dose, ip in presence of uridine; assay type: organism-based; settings: in vivo
Mus musculus [6] = test: Toxicity against BALB/c mouse infected with Plasmodium berghei assessed as loss in body weight at 12 mg/dose, ip in presence of uridine; assay type: organism-based; settings: in vivo
Mus musculus [7] = test: Toxicity against BALB/c mouse infected with Plasmodium berghei assessed as loss in body weight at 3 mg/dose, ip in presence of uridine; assay type: organism-based; settings: in vivo
Plasmodium berghei [8] = test: Antimalarial activity against Plasmodium berghei infected in BALB/c mouse assessed as reduction in parasitemia at 3 mg/dose, ip on days 5 to 7; assay type: functional, organism-based
Plasmodium berghei [9] = test: Antimalarial activity against Plasmodium berghei infected in BALB/c mouse assessed as reduction in parasitemia at 3 mg/dose, ip on days 5 to 7 in presence of uridine; assay type: functional, organism-based
Plasmodium berghei [10] = test: Antimalarial activity against Plasmodium berghei infected in BALB/c mouse assessed as reduction in parasitemia at 6 to 12 mg/dose, ip on days 5 to 7; assay type: functional, organism-based
Plasmodium berghei [11] = test: Antimalarial activity against Plasmodium berghei infected in BALB/c mouse assessed as reduction in parasitemia at 6 to 12 mg/dose, ip on days 5 to 7 in presence of uridine; assay type: functional, organism-based
Plasmodium chabaudi [12] = test: Antimalarial activity against Plasmodium chabaudi chabaudi infected in BALB/c mouse assessed as reduction in parasitemia at 6 mg/day administered as infusion on days 4 to 6 measured on days 10 to 13; assay type: functional, organism-based
Plasmodium chabaudi [13] = test: Antimalarial activity against Plasmodium chabaudi chabaudi infected in BALB/c mouse assessed as reduction in parasitemia at 6 mg/day administered as infusion on days 4 to 6 measured on days 10 to 13 in presence of uridine; assay type: functional, organism-based
Plasmodium berghei [14] = test: Antimalarial activity against Plasmodium berghei infected in mouse assessed as reduction of parasitemia at 50 ug/dose, ip on days 4 to 7; assay type: functional, organism-based
Plasmodium chabaudi [15] = test: Antimalarial activity against Plasmodium chabaudi chabaudi infected in mouse at 6 mg/day administered as infusion on days 4 to 6 relative to untreated control; assay type: functional, organism-based
Plasmodium falciparum [16] = test: Antimalarial activity against ring-stage Plasmodium falciparum assessed as decrease in viability at 4 uM incubated for 3 hrs followed by compound washout measured after 48 hrs by SYBR-Green staining-based fluorescence analysis relative to untreated control; assay type: functional, organism-based
[17] = Hemolytic activity against human erythrocytes at 250 uM; assay type: ADME, cell-based; settings: erythrocyte
C32 = test: Cytotoxicity against human C32 cells after 48 hrs by MTT assay in presence of uridine; assay type: cell-based; settings: c32, 48 h
Plasmodium falciparum [18] = test: Growth inhibition of Plasmodium falciparum at >250 uM after 72 hrs by lactate dehydrogenase assay in absence of uridine; assay type: functional, organism-based
[19] = Therapeutic index, ratio of IC50 for CHO cells to IC50 for Plasmodium falciparum in absence of uridine; assay type: cell-based; settings: hamster, CHO cells versus Plasmodium falciparum; read-out: Ratio IC50
Plasmodium falciparum [20] = test: Antimalarial activity against Plasmodium falciparum after 72 hrs by lactate dehydrogenase assay in absence of uridine; assay type: functional, organism-based
[21] = Therapeutic index, ratio of IC50 for CHO cells to IC50 for Plasmodium falciparum in presence of uridine; assay type: cell-based; settings: hamster, CHO cells versus Plasmodium falciparum; read-out: Ratio IC50
Plasmodium falciparum [22] = test: Antimalarial activity against Plasmodium falciparum after 72 hrs by lactate dehydrogenase assay in presence of uridine; assay type: functional, organism-based
CHO [23] = test: Cytotoxicity against CHO cells assessed as growth inhibition after 48 hrs by MTT assay in absence of uridine; assay type: cell-based; settings: Cricetulus griseus
Plasmodium chabaudi [24] = test: Antimalarial activity against Plasmodium chabaudi chabaudi infected in ip dosed BALB/C mouse; assay type: functional, organism-based
Plasmodium falciparum [25] = test: Antimalarial activity against Plasmodium falciparum FCR3 after 72 hrs by lactate dehydrogenase assay; assay type: functional; settings: FCR-3/Gambia
Plasmodium berghei [26] = test: Antimalarial activity against Plasmodium berghei infected in ip dosed BALB/C mouse; assay type: functional, organism-based
Plasmodium falciparum [27] = test: Antimalarial activity against chloroquine/multidrug-resistant Plasmodium falciparum SB after 72 hrs by lactate dehydrogenase assay; assay type: functional, organism-based
Plasmodium falciparum [28] = test: Antimalarial activity against chloroquine/multidrug-resistant Plasmodium falciparum MB after 72 hrs by lactate dehydrogenase assay; assay type: functional, organism-based
Plasmodium falciparum [29] = test: Antimalarial activity against chloroquine/mefloquine-resistant Plasmodium falciparum KC98358 after 72 hrs by lactate dehydrogenase assay; assay type: functional, organism-based; settings: KC98358, 72 h
Plasmodium falciparum [30] = test: Antimalarial activity against chloroquine/mefloquine-resistant Plasmodium falciparum KC98 after 72 hrs by lactate dehydrogenase assay; assay type: functional, organism-based; settings: KC98, 72 h
Plasmodium falciparum [31] = test: Antimalarial activity against chloroquine-resistant Plasmodium falciparum ItG after 72 hrs by lactate dehydrogenase assay; assay type: functional, organism-based
Plasmodium falciparum [32] = test: Antimalarial activity against Plasmodium falciparum 3D7 after 72 hrs by lactate dehydrogenase assay; assay type: functional, organism-based; settings: 3D7, 72 h
Plasmodium chabaudi [33] = test: Antimalarial activity against Plasmodium chabaudi chabaudi infected in mouse assessed as reduction in parasitemia at 7.1 mg/day administered as infusion on days 4 to 6; assay type: functional, organism-based
Plasmodium chabaudi [34] = test: Antimalarial activity against Plasmodium chabaudi chabaudi infected in mouse assessed as reduction in parasitemia at 6.9 mg/day administered as infusion on days 4 to 6; assay type: functional, organism-based

SMILES: CC[C@H]1OC(=O)[C@H](C)[C@@H](O[C@H]2C[C@@](C)(OC)[C@@H](O)[C@H](C)O2)[C@H](C)[C@@H](O[C@@H]2O[C@H](C)C[C@H](N(C)C)[C@H]2O)[C@](C)(O)C[C@@H](C)CN(C)[C@H](C)[C@@H](O)[C@]1(C)O
Activity (Plasmodium berghei [1]): inactive

SMILES: O=c1cc(I)n([C@@H]2O[C@H](CO)[C@@H](O)[C@H]2O)c(=O)[nH]1
Activity (Plasmodium falciparum [2]): inactive
Activity (CHO [3]): Toxic
Selectivity Index [4]: 2
Activity (Mus musculus [5]): Toxic
Activity (Mus musculus [6]): Toxic
Activity (Mus musculus [7]): Non-toxic
Activity (Plasmodium berghei [8]): Active
Activity (Plasmodium berghei [9]): Active
Activity (Plasmodium berghei [10]): Active
Activity (Plasmodium berghei [11]): Active
Activity (Plasmodium chabaudi [12]): inactive
Activity (Plasmodium chabaudi [13]): Active
Activity (Plasmodium berghei [14]): Active
Activity (Plasmodium chabaudi [15]): inactive
Activity (Plasmodium falciparum [16]): Active
Activity [17]: Toxic
Activity (C32): Non-toxic
growth inhibition (GI) (Plasmodium falciparum [18]): Active
selectivity ratio [19]: 38
IC50 (Plasmodium falciparum [20]): 13.2 µM
selectivity ratio [21]: 35
IC50 (Plasmodium falciparum [22]): 11.2 µM
IC50 (CHO [23]): 491 µM
IC50 (Plasmodium chabaudi [24]): 300 µM
IC50 (Plasmodium falciparum [25]): 56.5 µM
IC50 (Plasmodium berghei [26]): 303 µM
IC50 (Plasmodium falciparum [27]): 29.1 µM
IC50 (Plasmodium falciparum [28]): 18.7 µM
IC50 (Plasmodium falciparum [29]): 1.4 µM
IC50 (Plasmodium falciparum [30]): 2.3 µM
IC50 (Plasmodium falciparum [31]): 1.2 µM
IC50 (Plasmodium falciparum [32]): 27 µM

IC50 (Plasmodium falciparum [25]): 85 µM
SMILES: CCC(=O)OC[C@H]1O[C@@H](n2c(I)cc(=O)[nH]c2=O)[C@H](O)[C@@H]1O
Activity (Plasmodium chabaudi [33]): inactive

IC50 (Plasmodium falciparum [25]): 166 µM
SMILES: CCCC(=O)OC[C@H]1O[C@@H](n2c(I)cc(=O)[nH]c2=O)[C@H](O)[C@@H]1O
Activity (Plasmodium chabaudi [34]): Active

SMILES: C[n+]1cnn(CCCCCCCCCCCCn2c[n+](C)cn2)c1
Activity (Plasmodium berghei [26]): Active
